Here are results for one compound from patent US20220411448A1, “CHROMENE-4-ONE DERIVATIVES AS BRAIN-DERIVED NEUROTROPHIC FACTOR (BDNF) MIMETICS” (FLORATEK PHARMA AG, priority 2019, published 2022).

Data set [1] relates to TrkB receptor. As to the kind of experiment: Activation of TrkB receptor: phosphorylation in cortical neurons (WES capillary immunoassay). It is filed as cell-based, mouse. The method, then: On the day of preparation (DIV1) cortical neurons were seeded on poly-D-lysine pre-coated 6-well plates at a density of 1.25*10^6 cells per well and cultured at 37° C.; 95% humidity and 5% CO2 until […] with a half medium exchange on DIV4-6. On DIV10 cells are treated with test item TI (SND118) and control Rh (7,8DHF) at different concentrations for 15 min. The experiment was carried out with n=6 technical replicates per condition, vehicle treated cells served as control. Cells were lysed in 150 μL cold RIPA buffer [50 mM Tris pH 7.4, 1% Nonidet P40, 0.25% Na-deoxy-cholate, 150 mM NaCl, 1 mM EDTA supplemented with freshly added 1 μM NaF, 0.2 mM Na-ortho-vanadate, 80 μM Glycerophosphate, protease (Calbiochem) and phosphatase (Sigma) inhibitor cocktail.
Phosphorylation of the TrkB receptor was detected using the following rabbit anti-Tyr specific antibodies: anti-TrkB Y515, Y706/707 and Y816 and compared with total TrkB detected with anti-TrkB antibody (Abcam). Antibody dilutions and protein amounts were optimized for signal specificity.
Automated separation and immunostaining of total and phospho TrkB was carried out using a capillary-based immunoassay, WES™ (Proteinsimple®). Samples were applied to a 25 capillary cartridge with a 2 to 440 kDa matrix, at an optimized total protein concentration. Sample loading, separation, immunoprobing, washing, detection and quantitative data analysis were performed automatically by WES™ Western system (Compass software V 4.0.0). The areas under the curve were used for the analysis and the phosphorylated versus vehicle or total TrkB signal ratio was calculated and used for statistics.

Data set [2] concerns primary cultures of cerebral cortical astrocytes. Kind of data set: Lactate release assay in astrocyte cultures. Type of data set: cell-based, mouse. To be noted: various concentrations, 30 minutes after application. The method, then:
Primary cultures of cerebral cortical astrocytes were prepared from Swiss albino newborn mice (1-2 days old) as described [Pellerin L, Magistretti P J. Glutamate uptake into astrocytes stimulates aerobic glycolysis: a mechanism coupling neuronal activity to glucose utilization. Proc Natl Acad Sci USA. 1994 Oct. 25; 91(22):10625-9]. This procedure yields cultures that are >95% immunoreactive for glial fibrillary acidic protein.
Astrocytes are emerging as having significant roles in several homeostatic processes in the brain [Zuchero J B, Barres B A. Glia in mammalian development and disease. Development 2015 142: 3805-3809]. To evaluate the potential effects of Compound A (10 μM) on astrocyte metabolism, the uptake of glucose and lactate release were measured 30 minutes after application of compounds to the culture (FIGS. 2 and 3).
Lactate release into the medium was measured enzymatically by a modification of the enzymatic spectrophotometric method of Rosenberg and Rush [Rosenberg J C, Rush B F. An enzymatic-spectrophotometric determination of pyruvic and lactic acid in blood. Methodologic aspects. Clin Chem. 1966; 12(5):299-307.]. Incubations were carried out exactly as described for [3H]2DG uptake experiments except for the fact that no tracer and no phenol red (which otherwise interferes with the spectrophotometric determination of lactate) were present in the incubation medium. […]

Data set [3] deals with primary cultures of cortical neurons. As to the kind of experiment: Primary neuronal culture viability (MTT assay). Particulars: primary neuron culture, 24 hours. It is filed as cell-based, mouse. The procedure: For neuronal cultures, primary cultures of cortical neurons were prepared from embryonic day 17 (E17) OF1 mice embryos (Charles River Laboratories) as previously described [Allaman I., Pellerin L., Magistretti P. J. (2004) Glucocorticoids modulate neurotransmitter-induced glycogen metabolism in cultured cortical astrocytes. J. Neurochem. 88, 900-908] or from C57BL/6JRccHsd mice at E18. Animals were sacrificed and embryos were dissected in Calcium and Magnesium free Hanks Balanced Salt Solution (CMF-HBSS) containing 15 mM HEPES and 10 mM NaHCO3, pH 7.2. Embryos were decapitated, skin and skull gently removed and hemispheres were separated. […]
The MTT assay was conducted according to manufacturer's instructions (Invitrogen/Molecular Probes, Eugene, Oreg.) and was measured using a plate reader at an absorbance wavelength of 570 nm. Cell survival rate was expressed either as the absorbance values or as optical density (OD), with values calculated as % of controls.
Primary neuronal culture viability in the presence of Compound A/SND118 Primary neuron culture was prepared as described and treated with Compound A/SND118 at various concentrations for 24 hours. Cellular viability was measured using MTT assay as described.

The nature of data set [4]: Metabolic stability in mouse intestine microsomes. It is filed as in vitro ADME. To be noted: male, CD1, mouse, pooled intestine microsomes, pH 7.4, intestinal microsomes, 0.5 mg/ml protein, read-out: T1/2 IM mouse. The procedure: Sample type: pooled liver or intestine microsomes; Species: CD1-mouse (male), human (mixed gender) Time points: 0, 10, 20, 40, 60 min cofactors, and negative control;
Protein content: 0.5 mg/ml: Replicates: 2 with cofactors, 1 without cofactors; Cofactors: NADPH (1 mM)+UDPGA (1 mM)+15 μg/ml alamethicin Buffer: 0.1 M phosphate buffer pH 7.4, 2 mM MgCl2; Spiking solvent: 50% DMSO ( 1/100 to incubation); Quenching solvent: 2-fold volume of 75% ACN, Control: midazolam disappearance rate
The study compounds were incubated with liver or intestine microsomes as specified above. The collected samples were stored at −20 C until thawed at room temperature, centrifuged and analyzed as presented below.
The samples were analysed by UPLC/HR-MS (with data dependent MS/MS mode) to monitor substrate depletion (and later optionally metabolite formation). The analytical method was optimised by using the parent compound for optimum chromatographic properties (peak shape and retention) and mass spectrometric ionisation. Disappearance rate of the study compound was estimated based on relative LC/MS peak areas (o min marked as 100%), and was used to calculate in vitro half-life and clearance (and in vivo extrapolation of hepatic clearance).

As to `O=c1cc(-c2ccc(CCCC[P+](c3ccccc3)(c3ccccc3)c3ccccc3)cc2)oc2c(O)c(O)ccc12` [SND118, 4-[4-(7,8-dihydroxy-4-oxo-chromen-2-yl)phenyl]butyltriphenylphosphonium bromide], the “phospho Tyr706/707 signal normalized to the TrkB” value in data set [1] is recorded as “significant increase”. In data set [1] (1 and 2 μM), the “phosphorylation of the TrkB receptor at sites Tyr 515 and Tyr 816” value is on record as “induced statistically significant phosphorylation”. For the same compound, in data set [1] (SND118 2 μM), the “phosphorylation of TrkB at Tyr residue 706/707 versus the vehicle” value was “increased slightly”. In data set [2], the “release of L-lactate” value is listed as “increased the release of L-lactate”. Also, the “Cellular viability (MTT): concentration up to which not toxic” value in data set [3] was not above 10 µM. Further, the half-life at 1 μM in data set [4] came to 27.6 min.
